Like-named read-outs stand apart in the source and are kept apart here.
What was measured:
[1] = system: T-47D; assay: Caspase cascade activation assay in T-47D cells (N-(Ac-DEVD)-N'-ethoxycarbonyl-R110 fluorogenic substrate); assay type: cell-based; settings: T-47D human breast cancer cells, 24 h incubation; for EC50: sigmoidal dose-response, read-out: Caspase potency EC50; for Caspase activity (Ratio): ratio of net RFU of test compound to control
Description: (§1) Human breast cancer cell lines T-47D and ZR-75-1 were grown according to media component mixtures designated by American Type Culture Collection+10% FCS (Invitrogen Corporation), in a 5% CO2-95% humidity incubator at 37° C. T-47D and ZR-75-1 cells were maintained at a cell density between 30 and 80% confluency at a cell density of 0.1 to 0.6×10^6 cells/mL. Cells were harvested at 600×g and resuspended at 0.65×10^6 cells/mL into appropriate media+10% FCS. An aliquot of 45 μl of cells was added to a well of a 96-well microtiter plate containing 5 μl of a 10% DMSO in RPMI-1640 media solution containing about […] of 2-amino-3-cyano-4-(5-methyl-pyridin-3-yl)-7-methyl-4H-pyrrolo[2,3-h]chromene (Example 10) or other test compound (0.016 to 1 μM final). An aliquot of 45 μl of cells was added to a well of a 96-well microtiter plate containing 5 μl of a 10% DMSO in RPMI-1640 media solution without test compound as the control sample. The samples were mixed by agitation and then incubated at 37° C. for 24 h in a 5% CO2-95% humidity incubator. After incubation, the samples were removed from the incubator and 50 μl of a solution containing 20 μM of N-(Ac-DEVD)-N′-ethoxycarbonyl-R110 (SEQ ID No:1) fluorogenic substrate (Cytovia, Inc.; U.S. Pat. No. 6,335,429), 20% sucrose (Sigma), 20 mM DTT (Sigma), 200 mM NaCl (Sigma), 40 mM Na PIPES buffer pH 7.2 (Sigma), and 500 μg/ml lysolecithin (Calbiochem) was added. The samples were mixed by agitation and incubated at room temperature. Using a fluorescent plate reader (Model 1420 Wallac Instruments), an initial reading (T=0) was made approximately 1-2 min after addition of the substrate solution, employing excitation at 485 nm and emission at 530 nm, to determine the background fluorescence of the control sample. After the 3 h incubation, the samples were read for fluorescence as above (T=3 h).
(§2) The Relative Fluorescence Unit values (RFU) were used to calculate the sample readings as follows: RFU(T=3h)−Control RFU(T=0)=Net RFU(T=3h) The activity of caspase cascade activation was determined by the ratio of the net RFU value for 2-amino-3-cyano-4-(5-methyl-pyridin-3-yl)-7-methyl-4H-pyrrolo[2,3-h]chromene or other test compound to that of control samples. The EC50 (nM) was determined by a sigmoidal dose-response calculation (Prism 2.0, GraphPad Software Inc.).

[2] = system: ZR-75-1; assay: Caspase cascade activation assay in ZR-75-1 cells (N-(Ac-DEVD)-N'-ethoxycarbonyl-R110 fluorogenic substrate); assay type: cell-based; settings: ZR-75-1 human breast cancer cells, 24 h incubation; for Caspase activity (Ratio): ratio of net RFU of test compound to control; for EC50: sigmoidal dose-response, read-out: Caspase potency EC50
Description: as §1, §2

EC50 ([1]; T47D) | EC50 [2] | EC50 [1] | Molecule | Caspase activity (Ratio) [1] | Caspase activity (Ratio) [2]
3.5 nM | 1.7 nM | – | COc1cc(OC)cc(C2C(C#N)=C(N)Oc3c2ccc2c3ccn2C)c1 (stereo not drawn) [Example 26, 2-Amino-3-cyano-4-(3,5-dimethoxyphenyl)-7-methyl-4H-pyrrolo[2,3-h]chromene] | 5.2 | 7.1
– | 29 nM | 55 nM | CCC=CCC=CCC=CCC=CCC=CCC=CCCC(=O)OCn1ccc2c3c(ccc21)C(c1cc(Br)c(OC)c(OC)c1)C(C#N)=C(N)O3 (stereo not drawn) [Example 38, 4,7,10,13,16,19-Docosahexaenoic acid {2-Amino-4-(3-bromo-4,5-dimethoxy-phenyl)-3-cyano-4H-pyrrolo[2,3-h]chromene}-7-ylmethyl ester] | 5.2 | 6.9
– | 26 nM | 51 nM | CCC=CCC=CCC=CCC=CCC=CCC=CCCC(=O)OCn1ccc2c3c(ccc21)C(c1cncc(C)c1)C(C#N)=C(N)O3 (stereo not drawn) [Example 39, 4,7,10,13,16,19-Docosahexaenoic acid {2-Amino-3-cyano-4-(5-methyl-pyridin-3-yl)-4H-pyrrolo[2,3-h]chromene}-7-ylmethyl ester] | 3.7 | 6.2
29 nM | 14 nM | – | Cn1ccc2c3c(ccc21)C(c1ccc(F)c(Br)c1)C(C#N)=C(N)O3 (stereo not drawn) [Example 40I, 2-Amino-3-cyano-4-(3-bromo-4-fluorophenyl)-7-methyl-4H-pyrrolo[2,3-h]chromene] | 3.9 | 4.4
2.9 nM | 1.1 nM | – | Cn1ccc2c3c(ccc21)C(c1cncc(Br)c1)C(C#N)=C(N)O3 (stereo not drawn) [Example 11, 2-Amino-4-(5-bromo-pyridin-3-yl)-3-cyano-7-methyl-4H-pyrrolo [2,3-h]chromene] | 4.6 | 4.1
7.2 nM | 3.2 nM | – | Cn1ccc2c3c(ccc21)C(c1cccc([N+](=O)[O-])c1)C(C#N)=C(N)O3 (stereo not drawn) [Example 25, 2-Amino-3-cyano-4-(3-nitrophenyl)-7-methyl-4H-pyrrolo[2,3-h]chromene] | 3.2 | 7.1
55 nM | 35 nM | – | Cn1ccc2c3c(ccc21)C(c1ccc(C#N)cc1)C(C#N)=C(N)O3 (stereo not drawn) [Example 40B, 2-Amino-3-cyano-4-(4-cyanophenyl)-7-methyl-4H-pyrrolo[2,3-h]chromene] | 4.9 | 4.2
3.3 nM | 2.3 nM | – | COc1cc(C2C(C#N)=C(N)Oc3c2ccc2c3CCN2C)cc(Br)c1OC (stereo not drawn) [Example 23, 2-Amino-4-(3-bromo-4,5-dimethoxyphenyl)-3-cyano-8,9-dihydro-7-methyl-4H-pyrrolo[2,3-h]chromene] | 5.2 | 5.0
– | 10.4 nM | 19.8 nM | 2-Amino-3-cyano-4-(5-methyl-pyridin-3-yl)-7-methyl-4H-imidazo[4,5-h]chromene [Example 14] | 8.0 | 9.9
58 nM | 55 nM | – | COc1cc(C2C(C#N)=C(N)Oc3c2ccc2c3ccn2C(C)C)cc(Br)c1OC (stereo not drawn) [Example 43, 2-Amino-3-cyano-4-(3-bromo-4,5-dimethoxy-phenyl)-7-isopropyl-4H-pyrrolo[2,3-h]chromene] | 2.5 | 6.3
2.3 nM | 1.6 nM | – | Cc1cncc(C2C(C#N)=C(N)Oc3c2ccc2c3ccn2C)c1 (stereo not drawn) [Example 10, 2-Amino-3-cyano-4-(5-methyl-pyridin-3-yl)-7-methyl-4H-pyrrolo[2,3-h]chromene] | 3.1 | 6.6
58.1 nM | 27.8 nM | – | Cn1ccc2c3c(ccc21)C(c1cnc2ccccc2n1)C(C#N)=C(N)O3 (stereo not drawn) [Example 3, 2-Amino-3-cyano-7-methyl-4-(quinoxalin-2-yl)-4H-pyrrolo[2,3-h]-chromene] | 5.6 | 3.1
– | 3.2 nM | 6.8 nM | 2-Amino-4-(5-bromo-pyridin-3-yl)-3-cyano-7-methyl-4H-imidazo[4,5-h]chromene [Example 13] | 8.8 | 8.0
6 nM | 3.4 nM | – | COc1cc(C2C(C#N)=C(N)Oc3c2ccc2c3ccn2C)cc(Br)c1O (stereo not drawn) [Example 18, 2-Amino-4-(3-bromo-4-hydroxy-5-methoxyphenyl)-3-cyano-7-methyl-4H-pyrrolo[2,3-h]chromene] | 4.0 | 6.6

Second part, the molecule before the results:

Molecule | EC50 ([1]; T47D) | EC50 [2] | EC50 [1] | Caspase activity (Ratio) [1] | Caspase activity (Ratio) [2]
Cn1ccc2c3c(ccc21)C(c1ccc(Cl)c(Cl)c1)C(C#N)=C(N)O3 (stereo not drawn) [Example 40E, 2-Amino-3-cyano-4-(3,4-dichlorophenyl)-7-methyl-4H-pyrrolo[2,3-h]chromene] | > 100 nM | 81 nM | – | 1.3 | 3.2
COc1cc(C2C(C#N)=C(N)Oc3c2ccc2c3ccn2C)cc(Br)c1OC(C)=O (stereo not drawn) [Example 22, 2-Amino-4-(4-acetoxy-3-bromo-5-methoxyphenyl)-3-cyano-7-methyl-4H-pyrrolo[2,3-h]chromene] | 3.4 nM | 2 nM | – | 5.3 | 7.2
Cn1ccc2c3c(ccc21)C(c1ccc(Cl)c(F)c1)C(C#N)=C(N)O3 (stereo not drawn) [Example 40H, 2-Amino-3-cyano-4-(3-fluoro-4-chlorophenyl)-7-methyl-4H-pyrrolo[2,3-h]chromene] | > 100 nM | 56 nM | – | 1.3 | 6.0
Cn1ccc2c3c(ccc21)C(c1cc(F)cc(F)c1)C(C#N)=C(N)O3 (stereo not drawn) [Example 30, 2-Amino-3-cyano-4-(3,5-difluorophenyl)-7-methyl-4H-pyrrolo[2,3-h]chromene] | 7.3 nM | 3.4 nM | – | 3.6 | 5.6
Cn1ccc2c3c(ccc21)C(c1cnc(O)c(Cl)c1)C(C#N)=C(N)O3 (stereo not drawn) [Example 9, 2-Amino-4-(5-chloro-6-hydroxy-pyridin-3-yl)-3-cyano-7-methyl-4H-pyrrolo[2,3-h]chromene] | 14.2 nM | 6.2 nM | – | 8.3 | 7.8
Cn1ccc2c3c(ccc21)C(c1cncc(C#N)c1)C(C#N)=C(N)O3 (stereo not drawn) [Example 1, 2-Amino-4-(5-cyano-pyridin-3-yl)-3-cyano-7-methyl-4H-pyrrolo[2,3-h]chromene] | 25.5 nM | 6.5 nM | – | 8.3 | 5.2
COc1cc(C2C(C#N)=C(N)Oc3c2ccc2c3ccn2CO)cc(Br)c1OC (stereo not drawn) [Example 17, 2-Amino-4-(3-bromo-4,5-dimethoxyphenyl)-3-cyano-7-hydroxymethyl-4H-pyrrolo[2,3-h]chromene] | 2.1 nM | 1.6 nM | – | 7.2 | 3.3
N#CC1=C(N)Oc2c(ccc3c2ccn3CO)C1c1cncc(Br)c1 (stereo not drawn) [Example 21, 2-Amino-4-(5-bromo-pyridin-3-yl)-3-cyano-7-hydroxymethyl-4H-pyrrolo[2,3-h]chromene] | 3 nM | 1.6 nM | – | 2.2 | 4.4
COc1cncc(C2C(C#N)=C(N)Oc3c2ccc2c3ccn2C)c1 (stereo not drawn) [Example 41, 2-Amino-3-cyano-4-(5-methoxy-pyridin-3-yl)-7-methyl-4H-pyrrolo[2,3-h]chromene] | 4 nM | 2 nM | – | 3.8 | 4.2
CC(C)n1ccc2c3c(ccc21)C(c1cc(Cl)cc(Cl)c1)C(C#N)=C(N)O3 (stereo not drawn) [Example 42, 2-Amino-3-cyano-4-(3,5-dichloro-phenyl)-7-isopropyl-4H-pyrrolo [2,3-h]chromene] | > 100 nM | 57 nM | – | 1.8 | 2.6
